Data set [1] has as its system Stage III-V gametocytes (blood stage P. falciparum parasites). Kind of data set: In vitro drug activity on gametocytes (AlamarBlue viability assay). The data set is classed as cell-based, Plasmodium falciparum. As to conditions: read-out: Gametocyte EC50. As to the method:
Cell culture. Asexual parasites of P. falciparum strain 3D7 were cultured as described previously [Trager W, et al., Journal of Parasitology 2005, 91: 484-486], Stage III-V gametocytes were selected and enriched with 3-day treatment with 50 mM N-acetylglucosamine (NAG) and the following Percoll density gradient centrifugation after gametocyte production [Tanaka T Q, et al., Molecular and Biochemical Parasitology, 2011, 111: 160-163], Gametocytes of HB3 and Dd2 strains were produced and then set up for assay in a similar process. HepG2 cells (ATCC, cat. no. 77400) were cultured in 175-cm^2 tissue culture flasks with 30 ml growth medium at 37° C. in a 5% CO2 humidified atmosphere. Growth medium was made with Dulbecco's Modified Eagle Medium with 10% fetal bovine serum (FBS). Growth medium was replaced every other day and cells were passed at 75% confluence.
Compound screening experiments were performed as previously described [Tanaka T Q et al., Molecular and Biochemical Parasitology, 2013, 3188: 20-25], Briefly, 2.5 μl/well incomplete medium was dispensed into each well of 1,536-well plates using the Multidrop Combi followed by 23 nl compound transferring using the NX-TR Pintool (WAKO Scientific Solutions, San Diego, Calif.). 2.5 μl/well of gametocytes was dispensed with a seeding density of 20,000 cells/well using the Multidrop Combi. The assay plates were incubated for 72 h at 37° C. with 5% CO2. After addition of 5 μl/well of 2× AlamarBlue dye (Life Technologies, cat. no. DALI 100), the plates were incubated for 24 h at 37° C. with 5% CO2 and were read in a fluorescence detection mode (Ex=525 nm, Em=598 nm) on a ViewLux plate reader (PerkinElmer).
Stage III-V gametocytes (blood stage P. falciparum parasites) were enriched with treatment with 50 mM N-acetylglucosamine (NAG) and Percoll density gradient centrifugation as described previously^1. Briefly, 2.5 μl/well incomplete medium was dispensed into each well of 1,536-well plates using the Multidrop Combi followed by 23 nl compound transfer using the NX-TR Pintool (WAKO Scientific Solutions, San Diego, Calif.). Then, 2.5 μl/well of gametocytes was dispensed with a seeding density of 20,000 cells/well using the Multidrop Combi. The assay plates were incubated for 72 h at 37° C. with 5% CO2. After addition of 5 μl/well of 2× AlamarBlue dye (Life Technologies, cat. no. DALI 100), the plates were incubated for 24 h at 37° C. with 5% CO2 and then were read in a fluorescence detection mode (Ex=525 nm, Em=598 nm) on a ViewLux plate reader (PerkinElmer).

Data set [2] concerns Asexual parasites of P. falciparum strain 3D7. Kind of data set: In vitro drug activity on asexual parasites (SYBR Green assay). The data set is classed as cell-based, Plasmodium falciparum. The method in brief: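 SYBR Green I fluorescence (ex 490, em 520 nm) was read after freeze-thaw lysis and 30 min staining at room temperature. Before that, drug-treated cultures (0.5% parasitemia, 2% hematocrit, DMSO ≤0.5%) were incubated 72 h, in duplicate.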

In the next data set the target is mTOR (Homo sapiens, UniProt P42345). Kind of data set: mTOR activity (no method described). It counts as biochemical.
Data set [3] is described as follows: Microsomal stability (rat). The data set is classed as in vitro ADME. The following applies: rat microsomes.
Another data set can be described thus: Solubility at pH 7.4. The data set is classed as physicochemical.

One may read the EC50 as the concentration that produces a half-maximal response.

`COc1cc(-c2ccc3ncc4c(c3c2)n(-c2cc(C#N)ccc2C)c(=O)n4C)ccc1Cl` [Compound 407]: the EC50 was determined as 104 nM in data set [1] and 52.4 nM in data set [2]. At mTOR, the mTOR was 50 µM. The “Microsomal Stability (rat) T1/2” value in data set [3] is listed as above 30 min. The “Sol @ pH 7.4” value in the data set “Solubility at pH 7.4” was below 1 ug/mL.
For `CNC(=O)c1ccc(-n2c(=O)ccc3cnc4ccc(-c5ccc(Cl)cc5)cc4c32)c(C)c1` [Compound 112], in that order: 179 nM, 76.8 nM, 3.581 µM, 5 min and 5 ug/mL.
Taken in the same sequence, the figures for `O=C(c1ccc(-n2c(=O)ccc3cnc4ccc(-c5ccc(Cl)cc5)nc4c32)cc1)N1CCOCC1` [Compound 151] were 52.7 nM, 19.1 nM, 3.72 µM, 3.5 min and below 1.0 ug/mL.
For `Cn1c(=O)n(-c2ccc(N3CCNCC3)c(C#N)c2)c2c3cc(-c4ccc(Cl)cc4)ccc3ncc21` [Compound 406], in that order: 13.1 nM, 8.46 nM, 0.2165 µM, 19.4 min and below 1 ug/mL.
For `CCNC(=O)c1cc(-c2ccc3ncc4ccc(=O)n(-c5ccc(C(=O)N6CCOCC6)cc5)c4c3c2)ccc1Cl` [Compound 150], the EC50 in data set [1] is 6230 nM; in data set [2], 3820 nM. Moreover, the mTOR at mTOR came to 7.873 µM. Further, in data set [3], the “Microsomal Stability (rat) T1/2” value was 2.4 min. In addition, the “Sol @ pH 7.4” value in the data set “Solubility at pH 7.4” is listed as 3.9 ug/mL.
Taken in the same sequence, the figures for `Cc1cc(C(=O)N2CCOCC2)ccc1-n1c(=O)ccc2cnc3ccc(-c4ccc(Cl)cc4)cc3c21` [Compound 110] were 139 nM, 40.8 nM, 9.459 µM, 2.2 min and 1.1 ug/mL.
Taken in the same sequence, the figures for `O=C(c1ccc(-n2c(=O)ccc3cnc4ccc(-c5ccc(CCN6CCOCC6)cc5)cc4c32)cc1)N1CCOCC1` [Compound 182] were 1480 nM, 459 nM, 1.439 µM, 10.8 min and 1.1 ug/mL.
Take `O=C(c1ccc(-n2c(=O)ccc3cnc4ccc(Br)cc4c32)cc1)N1CCOCC1` [Compound 337]: the EC50 in data set [1] amounted to 6230 nM; in data set [2] it was 1570 nM. This compound showed a mTOR on mTOR of 3.229 µM. Also, in data set [3], the “Microsomal Stability (rat) T1/2” value was above 30.0 min. Further, the “Sol @ pH 7.4” value in the data set “Solubility at pH 7.4” is given as above 68.0 ug/mL.
Taken in the same sequence, the figures for `C[C@@H]1CN(C(=O)c2ccc(-n3c(=O)ccc4cnc5ccc(-c6ccc(Cl)cc6)cc5c43)cc2)C[C@H](C)O1` [Compound 101] were 305 nM, 107 nM, 1.78 µM, 4.5 min and below 1.0 ug/mL.
In the case of `O=C(c1ccc(-n2c(=O)ccc3cnc4ccc(-c5ccc(CO)cc5)cc4c32)cc1)N1CCOCC1` [Compound 120], the EC50 amounted to 35.9 nM in data set [1] and 7.5 nM in data set [2]. The mTOR on mTOR was determined as 0.2246 µM. Also, the “Microsomal Stability (rat) T1/2” value in data set [3] was above 30.0 min. The “Sol @ pH 7.4” value in “Solubility at pH 7.4” was below 1.0 ug/mL.
As for `NCc1ccc(-c2ccc3ncc4ccc(=O)n(-c5ccc(C(=O)N6CCOCC6)cc5)c4c3c2)cc1` [Compound 111], the EC50 in data set [1] came out at 285 nM; in data set [2] it was 241 nM. The mTOR at mTOR turned out to be 1.135 µM. In addition, in data set [3], the “Microsomal Stability (rat) T1/2” value was above 30.0 min. Besides, the “Sol @ pH 7.4” value in the data set “Solubility at pH 7.4” is recorded as 19.8 ug/mL.
For `COc1cc(-c2ccc3ncc4c(c3c2)n(-c2cccc(C#N)c2)c(=O)n4C)ccc1Cl` [Compound 403], in that order: 262 nM, 125 nM, 100 µM, above 30.0 min and 3.1 ug/mL.

Values taken from patent US11753408B2, “Compounds and method for blocking transmission of malarial parasite” (The United States of America, as represented by the …, priority 2016, dated 2023).
